Laboratory results published in article PMC10105947, “Discovery of novel amino acid production traits by evolution of synthetic co-cultures” (Microbial Cell Factories, 2023).

Columns and labels:
ArgT [1] = biological target: T1, ArgT (Corynebacterium glutamicum, UniProt Q8NQU2); assay: isothermal titration calorimetry, purified His10-ArgT; type: binding
T1 construct: His10-ArgT, variant with cleavable His-tag and lacking the signal peptide

ArgT [2] = biological target: T1, ArgT; assay: isothermal titration calorimetry, purified His10-ArgT (one measurement); type: binding

T1 sequence (Q8NQU2 27-304): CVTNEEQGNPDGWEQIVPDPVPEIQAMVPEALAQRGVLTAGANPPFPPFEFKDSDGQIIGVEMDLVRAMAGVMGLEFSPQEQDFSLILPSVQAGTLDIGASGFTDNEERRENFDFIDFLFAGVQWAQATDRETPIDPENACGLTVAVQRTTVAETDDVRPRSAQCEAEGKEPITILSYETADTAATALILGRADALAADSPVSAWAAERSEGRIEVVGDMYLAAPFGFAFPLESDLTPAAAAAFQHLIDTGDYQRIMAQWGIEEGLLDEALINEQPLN

Compound	Kd (ArgT [1]) [nM]	Kd (ArgT [2]) [nM]
N=C(N)NCCC[C@H](N)C(=O)O [L-arginine]	29.5 ± 4.8	
NC(=O)NCCC[C@H](N)C(=O)O [L-citrulline]		432
